According to paper PMC7595425 (PLoS ONE, 2020):
Several values for one entry are separate records, joined by “and”; a condition that tells them apart may be missing. Identical values can stand only once.

What was measured:
P-gp [1] = target: T1, P-gp (Homo sapiens, UniProt P08183); assay: ATPase assay with P-gp-expressing membrane vesicles (SB-MDR1 […] ATPase Kit); type: biochemical
Protocol: The SB-MDR1 […] ATPase Kit, including P-gp-expressing membrane vesicles, was purchased from SOLVO Biotechnology (distributed by KAC Co., Ltd., Kyoto, Japan). This assay kit measures the interaction of test drugs with P-gp. ATPase assay was conducted according to the manufacturer’s instructions and a previous report. Inorganic phosphate liberated by ATP hydrolysis was detected by colorimetric reaction. The optical density (OD) was measured at 590 nm with a microplate reader, Sunrise™ Rainbow (TECAN, Kanagawa, Japan).

[2] = in combination with sertraline; cited from earlier work
[3] = Bidirectional assay across Caco-2 cell monolayers; conditions: human
Description: Caco-2 cells (RRID:CVCL_0025), a human colon epithelial cancer cell line frequently used as an in vitro intestinal model, were purchased from the American Type Culture Collection (Rockville, MD, USA). […] The receiver side contained transport medium.

P-gp [4] = target: T1, P-gp; assay: Efflux rate assay using P-gp-overexpressing LLC-GA5-CoL150 cells; type: in vitro ADME; design: host or cells: LLC-GA5-CoL150 (derivative of LLC-PK1 kidney epithelial cells)
Protocol: Efflux assay with LLC-GA5-CoL150 cells was performed as previously described, with some modifications. […] The cells were incubated for 30 min at 4°C, washed twice with ice-cold D-PBS(-), and further incubated in Opti-MEM® for 10 min at 37°C. The cells were then washed three times with ice-cold D-PBS(-), dried, and lysed by adding 200 μL of 0.1 N NaOH solution. […] The efflux rate was calculated according to the following formula.
Effluxrate(pmol/min/mgprotein)={Initialuptakeofpimozide(pmol/mgprotein)−Residualamountofpimozideafter10minincubation(pmol/mgprotein)}/10(min)
Protein was determined colorimetrically using DCTM Protein Assay (BIO-RAD, Hercules, CA), based on absorbance measurement at 700 nm with a microplate reader, Sunrise Rainbow RC (Tecan, Kanagawa, Japan). An aliquot of cell lysate was mixed with 300 μL of ethyl acetate for 10 min in the cold, then 100 μL of the organic phase was taken and evaporated. The residue was dissolved in 300 μL of mobile phase. All samples were applied to MultiScreen® Solvent Filter Plates 0.45 μm Low-Binding Hydrophilic PTFE (Merck, Ireland) and centrifuged at 3,500 rpm for 20 min at 4°C.
To estimate the kinetic parameters of carrier-mediated transport in the efflux assays, the transport rate (J) was fitted to the following Eq (1), containing saturable and nonsaturable-linear terms, by using the nonlinear least-squares regression analysis program, MULTI, as previously reported. J=Jmax×[S]/(Kt+[S])+kd×[S] (1) Where Jmax is the maximum transport rate for the carrier-mediated transport, [S] is the substrate concentration, Kt is the half-saturation concentration, and kd is the first-order rate constant.

[5] = pimozide 0.01 to 100 μM, mean ± S.D.

T1 sequence (P08183 whole entry): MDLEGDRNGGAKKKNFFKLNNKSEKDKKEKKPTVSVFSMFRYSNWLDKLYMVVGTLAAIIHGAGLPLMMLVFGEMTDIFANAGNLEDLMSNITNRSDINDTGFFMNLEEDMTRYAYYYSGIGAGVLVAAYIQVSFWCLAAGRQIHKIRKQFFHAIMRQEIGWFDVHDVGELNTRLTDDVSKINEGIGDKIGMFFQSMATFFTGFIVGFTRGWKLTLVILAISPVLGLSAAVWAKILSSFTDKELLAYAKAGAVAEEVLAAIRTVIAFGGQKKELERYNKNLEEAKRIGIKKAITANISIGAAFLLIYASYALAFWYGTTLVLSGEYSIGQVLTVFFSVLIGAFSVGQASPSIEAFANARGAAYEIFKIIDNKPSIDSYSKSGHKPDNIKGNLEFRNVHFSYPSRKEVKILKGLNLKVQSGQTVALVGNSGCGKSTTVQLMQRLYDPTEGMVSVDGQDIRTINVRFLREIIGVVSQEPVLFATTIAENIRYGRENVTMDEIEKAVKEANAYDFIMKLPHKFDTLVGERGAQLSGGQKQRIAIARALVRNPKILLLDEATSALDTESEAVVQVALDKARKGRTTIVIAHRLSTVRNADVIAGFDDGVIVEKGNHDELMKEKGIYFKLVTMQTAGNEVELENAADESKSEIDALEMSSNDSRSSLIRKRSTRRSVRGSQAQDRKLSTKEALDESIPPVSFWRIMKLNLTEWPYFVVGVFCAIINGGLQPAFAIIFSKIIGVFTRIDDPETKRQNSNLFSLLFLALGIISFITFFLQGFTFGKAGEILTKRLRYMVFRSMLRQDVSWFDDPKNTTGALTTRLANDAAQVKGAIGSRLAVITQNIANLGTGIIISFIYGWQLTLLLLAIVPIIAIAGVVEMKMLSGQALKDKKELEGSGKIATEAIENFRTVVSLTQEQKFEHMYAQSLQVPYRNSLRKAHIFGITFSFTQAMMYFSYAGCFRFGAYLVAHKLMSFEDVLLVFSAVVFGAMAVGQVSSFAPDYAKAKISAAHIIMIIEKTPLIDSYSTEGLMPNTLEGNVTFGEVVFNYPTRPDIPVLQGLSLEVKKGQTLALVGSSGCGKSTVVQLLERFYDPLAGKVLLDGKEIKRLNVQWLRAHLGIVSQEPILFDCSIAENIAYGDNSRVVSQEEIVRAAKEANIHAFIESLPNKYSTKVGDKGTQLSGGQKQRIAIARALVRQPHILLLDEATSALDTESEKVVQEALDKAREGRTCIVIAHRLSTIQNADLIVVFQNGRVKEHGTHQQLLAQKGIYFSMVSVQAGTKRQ

Structure (SMILES): O=c1[nH]c2ccccc2n1C1CCN(CCCC(c2ccc(F)cc2)c2ccc(F)cc2)CC1 [Pimozide]
- P-gp substrate/inhibitor classification from ATPase assay (P-gp [1]; ATPase activity increased concentration-dependently, reduced in the high concentration range): both a P-gp substrate and an inhibitor
- pimozide concentration over which ATPase activity decreased (P-gp [1]; concentration range 0.04 to 100 μM, concentration-dependent elevation at lower concentrations): about 10 μM
- change of blood half-life of pimozide [2]: without any significant change
- increase of AUC of pimozide [2]: 37%
- increase of Cmax of pimozide [2]: 35%
- Papp A→B at 120 min, 10 μM [3]: 1.64 ± 0.14 ×10⁻⁶ cm/s
- Papp B→A at 120 min, 10 μM [3]: 0.35 ± 0.01 ×10⁻⁶ cm/s
- Jmax/Kt (affinity for the transport carrier(s)) (P-gp [4]): 8.0 μL/min/mg protein
- Jmax (maximum transport rate for the carrier-mediated transport) (P-gp [4]; [5]): 84.9 ± 8.9 pmol/min/mg protein
- Kt (half-saturation concentration) (P-gp [4]; [5]): 10.6 ± 4.7 µM and 10.6 µM
